Measurements reported in US12319655B2, “RAF kinase inhibitors and methods of use thereof” (Deciphera Pharmaceuticals, LLC, priority 2021, dated 2025).

Key:
[1] = target: B-Raf kinase (SEQ. ID NO: 2) (Homo sapiens (Human), UniProt P15056); test: Biochemical Assay for B-Raf (2); conditions: Table J, biochemical assay (2); read-out: BRAF (2)
Description: Biochemical Assay for B-Raf (2)
(§1) Activity of B-Raf kinase (SEQ. ID NO: 2) was determined spectroscopically using a coupled pyruvate kinase/lactate dehydrogenase assay that continuously monitors the ATP hydrolysis-dependent oxidation of NADH (e.g., Schindler et al., Science, 2000, 289, 1938-1942). Assays were conducted in 384-well plates (25 μL final volume) using 2 nM B-Raf (Sigma), 1.5 units pyruvate kinase, 2.1 units lactate dehydrogenase, 1 mM phosphoenol pyruvate, 0.7 mM NADH, 50 nM MEK (SignalChem), and 1 mM ATP in assay buffer (100 mM Tris, pH 7.5, 15 mM MgCl2, 0.5 mM DTT, 0.1% octyl-glucoside, 0.002% (w/v) BSA, and 0.002% Triton X-100). Inhibition of B-Raf was measured by adding serial diluted test compound (final assay concentration of 1% DMSO). A decrease in absorption at 340 nm was monitored hourly for 4 h at 30° C. on a multi-mode microplate reader (BioTek). The reaction rate was calculated using the 2 to 3 h time frame. The reaction rate at each concentration of compound was converted to percent inhibition using controls (i.e., reaction with no test compound and reaction with a known inhibitor) and IC50 values were calculated by fitting a four-parameter sigmoidal curve to the data using Prism (GraphPad software).

[2] = target: C-Raf kinase (SEQ. ID NO: 3) (Homo sapiens (Human), UniProt P04049, Y340D/Y341D); test: Biochemical Assay for C-Raf (2); conditions: Table J, biochemical assay (2); read-out: CRAF (2)
Description: Biochemical Assay for C-Raf (2)
as §1, with “of C-Raf” for “of B-Raf”, “NO: 3)” for “NO: 2)”, “using 3.84” for “using 2”, “nM C-Raf (Eurofins),” for “nM B-Raf (Sigma),”

H2405 cells = test: H2405 Cell Proliferation Assay (2); type: cell-based; conditions: Homo sapiens, NCI-H2405
Description: H2405 Cell Proliferation Assay (2)
H2405 cells (catalog #CRL-5994) are obtained from the American Type Culture Collect (ATTC, Manassas, VA). Briefly, cells were grown in RPMI 1640 supplemented with 5% characterized fetal bovine serum (Invitrogen, Carlsbad, CA) and 1% Penicillin/Streptomycin/L-Glutamine at 37° C., 5% CO2, and 95% humidity. Cells are expanded until reaching 70-95% confluency at which point they are sub-cultured or harvested for assay use. A serial dilution of test compound is dispensed into a 384-well black clear bottom plate in triplicate. Seven hundred fifty cells are added per well in 50 μL complete growth medium in the 384-well plate. Plates are incubated for 67-72 h at 37° C., 5% CO2, and 95% humidity. At the end of the incubation, 10 μL of a 440 μM solution of resazurin (Sigma, St. Louis, MO) in PBS is added to each well of the plate and plates are incubated for an additional 5-6 h at 37° C., 5% CO2, and 95% humidity. Plates are read on a Synergy2 or equivalent reader (Biotek, Winooski VT) using an excitation of 540 nm and an emission of 600 nm. Data is analyzed using Prism software (GraphPad, San Diego, CA) to calculate IC50 values

B-Raf kinase (SEQ. ID NO: 2), sequence (P15056 416-766): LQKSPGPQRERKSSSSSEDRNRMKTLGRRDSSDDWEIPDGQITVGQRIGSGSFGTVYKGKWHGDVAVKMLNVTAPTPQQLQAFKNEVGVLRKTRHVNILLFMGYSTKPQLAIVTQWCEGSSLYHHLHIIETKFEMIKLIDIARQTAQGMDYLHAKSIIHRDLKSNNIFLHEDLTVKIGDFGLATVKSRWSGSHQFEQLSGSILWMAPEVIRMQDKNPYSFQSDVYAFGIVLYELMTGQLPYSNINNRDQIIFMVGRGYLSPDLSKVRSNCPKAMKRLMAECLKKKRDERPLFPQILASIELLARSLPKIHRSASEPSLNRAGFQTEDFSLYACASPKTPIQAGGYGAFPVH
C-Raf kinase (SEQ. ID NO: 3), sequence (P04049 307-648 Y340D/Y341D): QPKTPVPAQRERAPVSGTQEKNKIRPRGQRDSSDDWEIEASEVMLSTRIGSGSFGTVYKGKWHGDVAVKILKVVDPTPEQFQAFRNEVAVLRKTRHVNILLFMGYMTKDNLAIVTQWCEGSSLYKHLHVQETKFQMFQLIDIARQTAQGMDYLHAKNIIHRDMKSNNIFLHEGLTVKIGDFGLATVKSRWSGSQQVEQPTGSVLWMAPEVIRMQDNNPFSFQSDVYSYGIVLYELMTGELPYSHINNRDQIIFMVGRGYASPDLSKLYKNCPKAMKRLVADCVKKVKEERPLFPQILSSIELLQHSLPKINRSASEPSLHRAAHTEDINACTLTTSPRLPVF

## CNC(=O)c1cc(-c2cc(-c3cc(NC(=O)c4ccnc(C(C)(C)F)c4)ccc3C(F)(F)F)ccn2)ccn1 [Example 471]
[1]
  IC50: 1000 to 10000 nM
[2]
  IC50: 1000 to 10000 nM
H2405 cells
  IC50: 1000 to 10000 nM

## CNC(=O)c1cc(-c2cc(-c3cc(NC(=O)c4ccnc(C(C)(C)F)c4)ccc3C)c(C)cn2)ccn1 [Example 472]
[1]
  IC50: 500 to 1000 nM
[2]
  IC50: 500 to 1000 nM
H2405 cells
  IC50: 100 to 500 nM

## CNC(=O)c1cc(-c2cc(-c3cc(NC(=O)c4ccnc(C(C)(C)F)c4)ccc3C)cnn2)ccn1 [Example 473]
[1]
  IC50: 100 to 500 nM
[2]
  IC50: ≤ 100 nM
H2405 cells
  IC50: 100 to 500 nM

## CNC(=O)c1cc(-c2cc(-c3cc(NC(=O)c4ccnc(C(C)(C)F)c4)ccc3C)ncn2)ccn1 [Example 474]
[1]
  IC50: ≤ 100 nM
[2]
  IC50: ≤ 100 nM
H2405 cells
  IC50: ≤ 100 nM

## CNC(=O)c1cc(-c2cc(-c3cc(F)cc(NC(=O)c4ccnc(C(C)(C)F)c4)c3F)ccn2)ccn1 [Example 475]
[1]
  IC50: 1000 to 10000 nM
[2]
  IC50: 1000 to 10000 nM
H2405 cells
  IC50: 1000 to 10000 nM

## Cc1ccc(NC(=O)c2ccnc(C(C)(C)F)c2)cc1-c1ccnc(-c2ccnc(C(N)=O)c2)c1 [Example 476]
[1]
  IC50: ≤ 100 nM
[2]
  IC50: ≤ 100 nM
H2405 cells
  IC50: ≤ 100 nM

## CNC(=O)c1cc(-c2cc(-c3cc(NC(=O)c4cnnc(C(F)(F)F)c4)ccc3C)ccn2)ccn1 [Example 477]
[1]
  IC50: ≤ 100 nM
[2]
  IC50: ≤ 100 nM
H2405 cells
  IC50: 1000 to 10000 nM

## CNC(=O)c1cc(-c2cc(-c3cc(NC(=O)c4ccnc(C(C)(C)F)c4)cc(F)c3F)ccn2)ccn1 [Example 478]
[1]
  IC50: 100 to 500 nM
[2]
  IC50: 100 to 500 nM
H2405 cells
  IC50: ≤ 100 nM

## CNC(=O)c1cc(-c2cc(-c3cc(NC(=O)c4ccnc(C(C)(C)F)c4)ccc3F)ccn2)ccn1 [Example 479]
[1]
  IC50: 100 to 500 nM
[2]
  IC50: ≤ 100 nM
H2405 cells
  IC50: 100 to 500 nM

## CNC(=O)c1cc(-c2cc(-c3cc(NC(=O)c4ccnc(C(C)(C)F)c4)cc(F)c3C)ccn2)ccn1 [Example 480]
[1]
  IC50: 100 to 500 nM
[2]
  IC50: 100 to 500 nM
H2405 cells
  IC50: 100 to 500 nM

## CNC(=O)c1cc(-c2cc(-c3cc(NC(=O)c4ccnc(C(C)(C)F)c4)ccn3)ccn2)ccn1 [Example 481]
[1]
  IC50: 1000 to 10000 nM
[2]
  IC50: 500 to 1000 nM
H2405 cells
  IC50: 1000 to 10000 nM

## CNC(=O)c1cc(-c2cc(-c3cc(NC(=O)c4ccnc(C(C)(C)F)c4)c(F)cc3F)ccn2)ccn1 [Example 482]
[1]
  IC50: 100 to 500 nM
[2]
  IC50: ≤ 100 nM
H2405 cells
  IC50: 100 to 500 nM

## Cc1cc(-c2cc(NC(=O)c3ccnc(C(C)(C)F)c3)ccc2C)cc(-c2ccnc(C#N)c2)n1 [Example 483]
[1]
  IC50: 100 to 500 nM
[2]
  IC50: ≤ 100 nM
H2405 cells
  IC50: 1000 to 10000 nM

## Cc1cc(-c2cc(NC(=O)c3ccnc(C(C)(C)F)c3)ccc2C)cc(-c2ccnc(C(N)=O)c2)n1 [Example 484]
[1]
  IC50: ≤ 100 nM
[2]
  IC50: ≤ 100 nM
H2405 cells
  IC50: 100 to 500 nM
